According to patent publication US9255295B2, “Method for evaluating the sensitizing potential of a test compound” (IMMUNOSEARCH, priority 2010, dated 2016):
Like-named read-outs stand apart in the source and are kept apart here.

System: ARE gene family (AKR1B10, AKR1C1, AKR1C2, CYP1B1, FTH1P, FTL, G6PD, GCLM, NQO2, SLC7A11, TXNRD1, UGT1A1, UGT1A9, YWHAZ, CD36, CYP1A1, GCLC, HMOX1, NQO1, PSME2 …)
Conditions: for AHR expression / AKR1B10 expression / AKR1C1 expression / AKR1C2 expression / CYP1A1 expression / CYP1B1 expression / FTH1P expression / FTL expression / GCLC expression / GCLM expression / HMOX1 expression / NQO1 expression / NQO2 expression / SLC7A11 expression / TXNRD1 expression / UGT1A1 expression / UGT1A9 expression: compared to the control

## CC=Cc1ccc(O)c(OC)c1 [Isoeugenol]
0.1%
  AHR NUMBER OF GENES grade: 0 (if this expression is lower, the grade is 0)
  AKR1B10 NUMBER OF GENES grade: 0 (if this expression is lower, the grade is 0)
  AKR1C1 NUMBER OF GENES grade: 0 (if this expression is lower, the grade is 0)
  AKR1C2 NUMBER OF GENES grade: 0 (if this expression is lower, the grade is 0)
  ARE >1.3 (number of genes): 2
  CD36 expression compared to control: 0.9
  CD36 grade (NUMBER OF GENES): 0 (if this expression is lower, the grade is 0)
  CYP1A1 NUMBER OF GENES grade: 1 (If the expression is greater than 1.3 compared to the control, a grade of 11s given)
  CYP1B1 NUMBER OF GENES grade: 1 (If the expression is greater than 1.3 compared to the control, a grade of 11s given)
  FTH1P NUMBER OF GENES grade: 0 (if this expression is lower, the grade is 0)
  FTL NUMBER OF GENES grade: 0 (if this expression is lower, the grade is 0)
  GCLC NUMBER OF GENES grade: 0 (if this expression is lower, the grade is 0)
  GCLM NUMBER OF GENES grade: 0 (if this expression is lower, the grade is 0)
  HMOX1 NUMBER OF GENES grade: 0 (if this expression is lower, the grade is 0)
  NQO1 NUMBER OF GENES grade: 0 (if this expression is lower, the grade is 0)
  NQO2 NUMBER OF GENES grade: 0 (if this expression is lower, the grade is 0)
  S100A8 expression compared to control: 1.1
  S100A8 grade (NUMBER OF GENES): 0 (if this expression is lower, the grade is 0)
  SLC7A11 NUMBER OF GENES grade: 0 (if this expression is lower, the grade is 0)
  TOTAL ARE (number of genes): 2
  TXNRD1 NUMBER OF GENES grade: 0 (if this expression is lower, the grade is 0)
  UGT1A1 NUMBER OF GENES grade: 0 (if this expression is lower, the grade is 0)
  UGT1A9 NUMBER OF GENES grade: 0 (if this expression is lower, the grade is 0)
  AHR expression: 0.7
  AKR1B10 expression: 0.9
  AKR1C1 expression: 1.1
  AKR1C2 expression: 1.0
  CYP1A1 expression: 11.9
  CYP1B1 expression: 12.2
  FTH1P expression: 0.8
  FTL expression: 1.0
  GCLC expression: 0.8
  GCLM expression: 1.1
  HMOX1 expression: 0.9
  NQO1 expression: 1.1
  NQO2 expression: 1.0
  SLC7A11 expression: 1.1
  TXNRD1 expression: 1.1
  UGT1A1 expression: 1.0
  UGT1A9 expression: 0.8
1%
  AHR NUMBER OF GENES grade: 0 (if this expression is lower, the grade is 0)
  AKR1B10 NUMBER OF GENES grade: 0 (if this expression is lower, the grade is 0)
  AKR1C1 NUMBER OF GENES grade: 0 (if this expression is lower, the grade is 0)
  AKR1C2 NUMBER OF GENES grade: 0 (if this expression is lower, the grade is 0)
  ARE >1.3 (number of genes): 3
  CD36 expression compared to control: 1.3
  CD36 grade (NUMBER OF GENES): 1 (If the expression is greater than 1.3 compared to the control, a grade of 11s given)
  CYP1A1 NUMBER OF GENES grade: 1 (If the expression is greater than 1.3 compared to the control, a grade of 11s given)
  CYP1B1 NUMBER OF GENES grade: 1 (If the expression is greater than 1.3 compared to the control, a grade of 11s given)
  FTH1P NUMBER OF GENES grade: 0 (if this expression is lower, the grade is 0)
  FTL NUMBER OF GENES grade: 0 (if this expression is lower, the grade is 0)
  GCLC NUMBER OF GENES grade: 0 (if this expression is lower, the grade is 0)
  GCLM NUMBER OF GENES grade: 0 (if this expression is lower, the grade is 0)
  HMOX1 NUMBER OF GENES grade: 0 (if this expression is lower, the grade is 0)
  NQO1 NUMBER OF GENES grade: 0 (if this expression is lower, the grade is 0)
  NQO2 NUMBER OF GENES grade: 0 (if this expression is lower, the grade is 0)
  S100A8 expression compared to control: 1.0
  S100A8 grade (NUMBER OF GENES): 0 (if this expression is lower, the grade is 0)
  SLC7A11 NUMBER OF GENES grade: 0 (if this expression is lower, the grade is 0)
  TOTAL ARE (number of genes): 3
  TXNRD1 NUMBER OF GENES grade: 1 (If the expression is greater than 1.3 compared to the control, a grade of 11s given)
  UGT1A1 NUMBER OF GENES grade: 0 (if this expression is lower, the grade is 0)
  UGT1A9 NUMBER OF GENES grade: 0 (if this expression is lower, the grade is 0)
  AHR expression: 0.9
  AKR1B10 expression: 0.7
  AKR1C1 expression: 1.2
  AKR1C2 expression: 0.9
  CYP1A1 expression: 219.2
  CYP1B1 expression: 25.3
  FTH1P expression: 0.9
  FTL expression: 1.0
  GCLC expression: 0.9
  GCLM expression: 1.2
  HMOX1 expression: 1.2
  NQO1 expression: 1.0
  NQO2 expression: 1.0
  SLC7A11 expression: 1.1
  TXNRD1 expression: 1.3
  UGT1A1 expression: 1.1
  UGT1A9 expression: 1.0
10%
  AHR NUMBER OF GENES grade: 0 (if this expression is lower, the grade is 0)
  AKR1B10 NUMBER OF GENES grade: 0 (if this expression is lower, the grade is 0)
  AKR1C1 NUMBER OF GENES grade: 0 (if this expression is lower, the grade is 0)
  AKR1C2 NUMBER OF GENES grade: 0 (if this expression is lower, the grade is 0)
  ARE >1.3 (number of genes): 5
  CD36 expression compared to control: 0.6
  CD36 grade (NUMBER OF GENES): 0 (if this expression is lower, the grade is 0)
  CYP1A1 NUMBER OF GENES grade: 1 (If the expression is greater than 1.3 compared to the control, a grade of 11s given)
  CYP1B1 NUMBER OF GENES grade: 1 (If the expression is greater than 1.3 compared to the control, a grade of 11s given)
  FTH1P NUMBER OF GENES grade: 0 (if this expression is lower, the grade is 0)
  FTL NUMBER OF GENES grade: 0 (if this expression is lower, the grade is 0)
  GCLC NUMBER OF GENES grade: 0 (if this expression is lower, the grade is 0)
  GCLM NUMBER OF GENES grade: 1 (If the expression is greater than 1.3 compared to the control, a grade of 11s given)
  HMOX1 NUMBER OF GENES grade: 0 (if this expression is lower, the grade is 0)
  NQO1 NUMBER OF GENES grade: 0 (if this expression is lower, the grade is 0)
  NQO2 NUMBER OF GENES grade: 0 (if this expression is lower, the grade is 0)
  S100A8 expression compared to control: 1.3
  S100A8 grade (NUMBER OF GENES): 1 (If the expression is greater than 1.3 compared to the control, a grade of 11s given)
  SLC7A11 NUMBER OF GENES grade: 0 (if this expression is lower, the grade is 0)
  TOTAL ARE (number of genes): 5
  TXNRD1 NUMBER OF GENES grade: 1 (If the expression is greater than 1.3 compared to the control, a grade of 11s given)
  UGT1A1 NUMBER OF GENES grade: 0 (if this expression is lower, the grade is 0)
  UGT1A9 NUMBER OF GENES grade: 1 (If the expression is greater than 1.3 compared to the control, a grade of 11s given)
  AHR expression: 0.9
  AKR1B10 expression: 0.5
  AKR1C1 expression: 1.1
  AKR1C2 expression: 0.7
  CYP1A1 expression: 510.5
  CYP1B1 expression: 39.8
  FTH1P expression: 0.9
  FTL expression: 0.9
  GCLC expression: 0.8
  GCLM expression: 1.5
  HMOX1 expression: 1.2
  NQO1 expression: 1.0
  NQO2 expression: 0.9
  SLC7A11 expression: 1.1
  TXNRD1 expression: 1.5
  UGT1A1 expression: 1.2
  UGT1A9 expression: 1.6
50%
  AHR NUMBER OF GENES grade: 0 (if this expression is lower, the grade is 0)
  AKR1B10 NUMBER OF GENES grade: 0 (if this expression is lower, the grade is 0)
  AKR1C1 NUMBER OF GENES grade: 1 (If the expression is greater than 1.3 compared to the control, a grade of 11s given)
  AKR1C2 NUMBER OF GENES grade: 1 (If the expression is greater than 1.3 compared to the control, a grade of 11s given)
  ARE >1.3 (number of genes): 11
  CD36 expression compared to control: 0.6
  CD36 grade (NUMBER OF GENES): 0 (if this expression is lower, the grade is 0)
  CYP1A1 NUMBER OF GENES grade: 1 (If the expression is greater than 1.3 compared to the control, a grade of 11s given)
  CYP1B1 NUMBER OF GENES grade: 1 (If the expression is greater than 1.3 compared to the control, a grade of 11s given)
  FTH1P NUMBER OF GENES grade: 0 (if this expression is lower, the grade is 0)
  FTL NUMBER OF GENES grade: 1 (If the expression is greater than 1.3 compared to the control, a grade of 11s given)
  GCLC NUMBER OF GENES grade: 1 (If the expression is greater than 1.3 compared to the control, a grade of 11s given)
  GCLM NUMBER OF GENES grade: 1 (If the expression is greater than 1.3 compared to the control, a grade of 11s given)
  HMOX1 NUMBER OF GENES grade: 1 (If the expression is greater than 1.3 compared to the control, a grade of 11s given)
  NQO1 NUMBER OF GENES grade: 1 (If the expression is greater than 1.3 compared to the control, a grade of 11s given)
  NQO2 NUMBER OF GENES grade: 0 (if this expression is lower, the grade is 0)
  S100A8 expression compared to control: 1.5
  S100A8 grade (NUMBER OF GENES): 1 (If the expression is greater than 1.3 compared to the control, a grade of 11s given)
  SLC7A11 NUMBER OF GENES grade: 1 (If the expression is greater than 1.3 compared to the control, a grade of 11s given)
  TOTAL ARE (number of genes): 11
  TXNRD1 NUMBER OF GENES grade: 1 (If the expression is greater than 1.3 compared to the control, a grade of 11s given)
  UGT1A1 NUMBER OF GENES grade: 0 (if this expression is lower, the grade is 0)
  UGT1A9 NUMBER OF GENES grade: 0 (if this expression is lower, the grade is 0)
  AHR expression: 1.0
  AKR1B10 expression: 1.0
  AKR1C1 expression: 2.2
  AKR1C2 expression: 1.3
  CYP1A1 expression: 87.1
  CYP1B1 expression: 39.1
  FTH1P expression: 1.0
  FTL expression: 1.5
  GCLC expression: 1.3
  GCLM expression: 2.0
  HMOX1 expression: 1.4
  NQO1 expression: 1.8
  NQO2 expression: 1.1
  SLC7A11 expression: 2.2
  TXNRD1 expression: 2.6
  UGT1A1 expression: 1.2
  UGT1A9 expression: 1.2
